c1ccc(-n2c3ccccc3c3ccccc32)cc1
solubility (mole fraction)
Conditions	283.15 K	288.15 K	293.15 K	298.15 K	303.15 K	308.15 K	313.15 K	318.15 K	323.15 K
in dimethyl carbonate	0.054	0.0631	0.0771	0.0967	0.113	0.145	0.175	0.232	0.294
in ethyl acetate	0.0902	0.109	0.125	0.14	0.162	0.197	0.238	0.286	0.337
in ethyl lactate	0.0336	0.0362	0.0422	0.0502	0.0617	0.0731	0.0916	0.111	0.139
in isobutanol	0.00379	0.00416	0.00494	0.00582	0.00684	0.00814	0.00922	0.0109	0.0133
in isobutyl acetate	0.114	0.132	0.151	0.177	0.197	0.235	0.271	0.32	0.38
in isopentanol	0.00614	0.00721	0.00852	0.0101	0.0125	0.0154	0.0201	0.0253	0.0339
in isopropyl acetate	0.0729	0.0842	0.0983	0.111	0.133	0.163	0.198	0.238	0.291
in methyl acetate	0.0727	0.0874	0.103	0.128	0.161	0.199	0.237	0.277	0.354
in n-butyl acetate	0.113	0.129	0.146	0.167	0.186	0.225	0.26	0.306	0.355
in n-pentanol	0.0091	0.0106	0.0122	0.0147	0.0173	0.0212	0.0252	0.0309	0.0417
in n-propyl acetate	0.0761	0.0873	0.101	0.119	0.139	0.16	0.194	0.231	0.278
in sec-butanol	0.00405	0.00482	0.00607	0.00774	0.00939	0.0119	0.0148	0.0202	0.0278

Source: BigSolDB 2.1
